The subject of test [1] is K562. In words: In vitro inhibitory activity against K562 leukemia cells. The settings on record: Homo sapiens. In kind it is functional, cell-based.
Test [2] deals with K562. In words: In vitro inhibitory activity against K562 leukemia cells in the presence of pd2. Type of test: functional, cell-based. The note with it: Homo sapiens.

SMILES strings stand for the structures.

A word on the IC50: it is the concentration needed to halve the response being measured.

In the case of `CC1=C(N)C(=O)c2c(COC(N)=O)c3n(c2C1=O)C[C@H](N)[C@@H]3O`, the IC50 with K562 [1] is 33 nM. On to `CO[C@@]12[C@H](COC(N)=O)C3=C(C(=O)C(C)=C(N)C3=O)N1C[C@@H]1N[C@@H]12` [MITOMYCIN], for which the IC50 is 15.8 nM in the test on K562 [2] and 1 nM in the test on K562 [1].
